From the kinase profiling compilation of Christmann-Franck et al. (2016)

Tests used:
Experiment in all cases: KINOMEscan competition binding
Conditions in all cases: compound 10.0 µM
[1] = molecular target: ABL1 (human) (UniProt P00519)
[2] = molecular target: BMPR1B (human) (UniProt O00238)
[3] = system: BMX (human), P51813 [V600E]
[4] = molecular target: CDC2L2 (human) (UniProt Q9UQ88)
[5] = molecular target: CDK2 (human) (UniProt P24941)
[6] = molecular target: CDKL2 (human) (UniProt Q92772)
[7] = molecular target: CLK4 (human) (UniProt Q9HAZ1)
[8] = molecular target: CaMK1 (human) (UniProt Q14012)
[9] = molecular target: EPHA6 (human) (UniProt Q9UF33)
[10] = molecular target: GRK7 (human) (UniProt Q8WTQ7)
[11] = molecular target: LATS1 (human) (UniProt O95835)
[12] = molecular target: MAK (human) (UniProt P20794)
[13] = molecular target: MAP3K1 (human) (UniProt Q13233)
[14] = molecular target: MAP3K12 (human) (UniProt Q12852)
[15] = molecular target: MET (human) (UniProt P08581)
[16] = molecular target: MKNK1 (human) (UniProt Q9BUB5)
[17] = molecular target: MYLK3 (human) (UniProt Q32MK0)
[18] = molecular target: PDPK1 (human) (UniProt O15530)
[19] = molecular target: PHKG2 (human) (UniProt P15735)
[20] = molecular target: PIM3 (human) (UniProt Q86V86)
[21] = molecular target: PRKX (human) (UniProt P51817)
[22] = system: RET (human), P07949 [V804L]
[23] = molecular target: RPS6KA1 KD1 (human) (UniProt Q15418)
[24] = molecular target: RPS6KA1 KD2 (human) (UniProt Q15418)
[25] = molecular target: RPS6KA2 KD1 (human) (UniProt Q15349)
[26] = molecular target: RPS6KA5 KD2 (human) (UniProt O75582)
[27] = molecular target: STK10 (human) (UniProt O94804)
[28] = molecular target: STK24 (human) (UniProt Q9Y6E0)
[29] = molecular target: STK39 (human) (UniProt Q9UEW8)
[30] = molecular target: TIE1 (human) (UniProt P35590)
[31] = molecular target: BRAF (human) (UniProt P15056)

Chain of MAP3K12 (human) (Q12852 whole entry, looked up): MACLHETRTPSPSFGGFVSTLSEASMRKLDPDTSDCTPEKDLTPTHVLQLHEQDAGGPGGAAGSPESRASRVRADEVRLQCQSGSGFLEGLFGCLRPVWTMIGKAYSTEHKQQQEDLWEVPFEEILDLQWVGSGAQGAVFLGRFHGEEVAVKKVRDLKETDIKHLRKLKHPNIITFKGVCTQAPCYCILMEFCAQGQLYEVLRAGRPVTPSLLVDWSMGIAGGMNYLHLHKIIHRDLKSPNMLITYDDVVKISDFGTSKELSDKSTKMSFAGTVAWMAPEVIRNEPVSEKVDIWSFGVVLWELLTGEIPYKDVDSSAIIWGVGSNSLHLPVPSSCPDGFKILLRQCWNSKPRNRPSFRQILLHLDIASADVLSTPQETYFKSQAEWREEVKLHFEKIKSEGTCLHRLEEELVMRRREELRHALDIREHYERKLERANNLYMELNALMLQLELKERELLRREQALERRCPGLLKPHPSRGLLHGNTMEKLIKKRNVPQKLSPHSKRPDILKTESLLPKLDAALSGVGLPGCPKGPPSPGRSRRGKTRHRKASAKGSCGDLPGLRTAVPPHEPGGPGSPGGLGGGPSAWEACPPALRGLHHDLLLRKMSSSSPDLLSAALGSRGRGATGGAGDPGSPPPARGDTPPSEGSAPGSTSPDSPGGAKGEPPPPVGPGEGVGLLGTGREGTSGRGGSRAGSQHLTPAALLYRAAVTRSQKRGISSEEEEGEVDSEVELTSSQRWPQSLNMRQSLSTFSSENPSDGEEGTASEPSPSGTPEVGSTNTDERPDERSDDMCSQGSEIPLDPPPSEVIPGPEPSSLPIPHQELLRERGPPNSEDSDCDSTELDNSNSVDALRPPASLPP
Chain of MYLK3 (human) (Q32MK0 whole entry, looked up): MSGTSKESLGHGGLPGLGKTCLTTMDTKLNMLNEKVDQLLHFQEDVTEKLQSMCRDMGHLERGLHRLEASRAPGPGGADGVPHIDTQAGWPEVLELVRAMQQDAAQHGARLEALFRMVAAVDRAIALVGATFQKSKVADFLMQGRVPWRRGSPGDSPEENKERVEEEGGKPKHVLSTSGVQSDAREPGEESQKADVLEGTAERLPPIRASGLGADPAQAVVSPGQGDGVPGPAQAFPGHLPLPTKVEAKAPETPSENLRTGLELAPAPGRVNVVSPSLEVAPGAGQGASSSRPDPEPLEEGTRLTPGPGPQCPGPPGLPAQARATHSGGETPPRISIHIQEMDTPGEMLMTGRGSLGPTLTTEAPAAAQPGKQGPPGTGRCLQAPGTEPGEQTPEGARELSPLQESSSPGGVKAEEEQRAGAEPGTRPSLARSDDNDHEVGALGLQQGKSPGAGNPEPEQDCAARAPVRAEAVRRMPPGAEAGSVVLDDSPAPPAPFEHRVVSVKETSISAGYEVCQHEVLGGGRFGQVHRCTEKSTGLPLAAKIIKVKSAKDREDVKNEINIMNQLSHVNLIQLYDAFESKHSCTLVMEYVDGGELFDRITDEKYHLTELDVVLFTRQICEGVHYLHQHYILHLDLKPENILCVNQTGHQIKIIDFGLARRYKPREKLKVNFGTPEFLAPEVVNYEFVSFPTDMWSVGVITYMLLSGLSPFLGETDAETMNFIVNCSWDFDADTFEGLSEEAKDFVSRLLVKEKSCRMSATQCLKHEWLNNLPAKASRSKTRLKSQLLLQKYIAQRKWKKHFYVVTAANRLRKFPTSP
Chain of LATS1 (human) (O95835 whole entry, looked up): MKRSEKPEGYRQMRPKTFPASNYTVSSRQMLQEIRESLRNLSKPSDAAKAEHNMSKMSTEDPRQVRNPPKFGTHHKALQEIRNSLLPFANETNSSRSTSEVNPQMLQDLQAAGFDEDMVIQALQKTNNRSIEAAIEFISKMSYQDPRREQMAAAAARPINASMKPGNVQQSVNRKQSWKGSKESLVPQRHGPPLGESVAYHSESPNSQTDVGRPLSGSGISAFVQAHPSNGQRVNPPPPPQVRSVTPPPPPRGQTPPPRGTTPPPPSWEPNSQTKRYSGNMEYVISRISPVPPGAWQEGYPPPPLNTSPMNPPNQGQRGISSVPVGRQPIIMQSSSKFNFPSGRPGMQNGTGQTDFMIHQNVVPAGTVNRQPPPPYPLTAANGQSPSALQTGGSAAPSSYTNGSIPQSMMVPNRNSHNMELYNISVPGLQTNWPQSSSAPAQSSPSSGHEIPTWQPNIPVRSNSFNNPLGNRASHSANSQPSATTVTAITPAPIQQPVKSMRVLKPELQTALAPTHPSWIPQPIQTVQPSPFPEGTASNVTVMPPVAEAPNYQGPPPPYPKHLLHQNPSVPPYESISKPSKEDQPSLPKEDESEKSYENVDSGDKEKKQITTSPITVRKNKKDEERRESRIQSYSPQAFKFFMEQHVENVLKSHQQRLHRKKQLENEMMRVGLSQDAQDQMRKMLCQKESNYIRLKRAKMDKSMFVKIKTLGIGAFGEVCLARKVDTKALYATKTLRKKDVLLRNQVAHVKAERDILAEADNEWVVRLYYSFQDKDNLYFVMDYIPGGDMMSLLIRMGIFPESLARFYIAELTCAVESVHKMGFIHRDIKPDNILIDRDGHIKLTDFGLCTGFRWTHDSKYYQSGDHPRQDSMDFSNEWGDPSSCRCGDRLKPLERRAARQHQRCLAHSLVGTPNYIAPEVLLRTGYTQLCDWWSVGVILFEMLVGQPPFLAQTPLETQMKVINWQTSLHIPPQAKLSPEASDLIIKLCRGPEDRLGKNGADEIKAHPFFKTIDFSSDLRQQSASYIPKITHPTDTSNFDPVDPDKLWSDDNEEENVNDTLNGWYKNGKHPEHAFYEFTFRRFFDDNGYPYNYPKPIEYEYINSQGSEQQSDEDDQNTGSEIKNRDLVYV
Chain of MAP3K1 (human) (Q13233 whole entry, looked up): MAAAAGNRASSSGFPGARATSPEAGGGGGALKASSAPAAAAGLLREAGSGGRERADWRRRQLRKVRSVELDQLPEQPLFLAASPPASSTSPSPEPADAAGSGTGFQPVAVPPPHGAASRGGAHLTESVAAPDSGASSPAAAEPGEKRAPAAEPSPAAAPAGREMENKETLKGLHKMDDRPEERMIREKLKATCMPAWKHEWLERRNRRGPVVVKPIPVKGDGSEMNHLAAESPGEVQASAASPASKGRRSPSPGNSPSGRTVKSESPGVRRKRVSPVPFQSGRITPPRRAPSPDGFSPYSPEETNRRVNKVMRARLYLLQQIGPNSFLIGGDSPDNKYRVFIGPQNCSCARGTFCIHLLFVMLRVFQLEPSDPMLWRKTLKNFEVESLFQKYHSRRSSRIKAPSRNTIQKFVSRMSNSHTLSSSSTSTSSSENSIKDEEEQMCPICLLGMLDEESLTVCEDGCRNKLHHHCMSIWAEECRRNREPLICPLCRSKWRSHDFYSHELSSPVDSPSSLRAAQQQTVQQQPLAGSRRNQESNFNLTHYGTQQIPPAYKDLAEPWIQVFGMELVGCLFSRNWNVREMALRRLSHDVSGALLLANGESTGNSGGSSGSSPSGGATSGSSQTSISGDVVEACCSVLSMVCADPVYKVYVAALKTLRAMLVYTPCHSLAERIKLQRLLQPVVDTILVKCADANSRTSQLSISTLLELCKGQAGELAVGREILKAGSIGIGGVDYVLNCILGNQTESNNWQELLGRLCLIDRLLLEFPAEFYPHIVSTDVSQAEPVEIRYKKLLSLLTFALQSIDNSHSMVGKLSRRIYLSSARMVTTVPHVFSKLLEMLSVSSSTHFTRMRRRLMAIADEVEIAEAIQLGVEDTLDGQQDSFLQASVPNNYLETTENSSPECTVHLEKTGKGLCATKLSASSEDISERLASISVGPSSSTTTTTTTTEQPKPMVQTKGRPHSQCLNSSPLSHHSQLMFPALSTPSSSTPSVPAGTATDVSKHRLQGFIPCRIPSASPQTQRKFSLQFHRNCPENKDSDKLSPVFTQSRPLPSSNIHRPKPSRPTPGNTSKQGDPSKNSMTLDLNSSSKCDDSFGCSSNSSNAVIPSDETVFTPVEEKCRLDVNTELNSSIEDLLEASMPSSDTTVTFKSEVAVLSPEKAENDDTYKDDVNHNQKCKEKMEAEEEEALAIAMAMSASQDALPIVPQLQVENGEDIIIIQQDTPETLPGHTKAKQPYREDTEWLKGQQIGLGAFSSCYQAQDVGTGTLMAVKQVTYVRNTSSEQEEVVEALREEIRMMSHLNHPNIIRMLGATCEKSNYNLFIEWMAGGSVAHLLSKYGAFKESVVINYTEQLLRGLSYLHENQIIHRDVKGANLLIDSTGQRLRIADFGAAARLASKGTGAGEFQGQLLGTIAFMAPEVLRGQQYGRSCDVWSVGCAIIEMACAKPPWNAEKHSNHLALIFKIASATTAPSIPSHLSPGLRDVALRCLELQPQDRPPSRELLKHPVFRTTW
Chain of RPS6KA5 KD2 (human) (O75582 whole entry, looked up): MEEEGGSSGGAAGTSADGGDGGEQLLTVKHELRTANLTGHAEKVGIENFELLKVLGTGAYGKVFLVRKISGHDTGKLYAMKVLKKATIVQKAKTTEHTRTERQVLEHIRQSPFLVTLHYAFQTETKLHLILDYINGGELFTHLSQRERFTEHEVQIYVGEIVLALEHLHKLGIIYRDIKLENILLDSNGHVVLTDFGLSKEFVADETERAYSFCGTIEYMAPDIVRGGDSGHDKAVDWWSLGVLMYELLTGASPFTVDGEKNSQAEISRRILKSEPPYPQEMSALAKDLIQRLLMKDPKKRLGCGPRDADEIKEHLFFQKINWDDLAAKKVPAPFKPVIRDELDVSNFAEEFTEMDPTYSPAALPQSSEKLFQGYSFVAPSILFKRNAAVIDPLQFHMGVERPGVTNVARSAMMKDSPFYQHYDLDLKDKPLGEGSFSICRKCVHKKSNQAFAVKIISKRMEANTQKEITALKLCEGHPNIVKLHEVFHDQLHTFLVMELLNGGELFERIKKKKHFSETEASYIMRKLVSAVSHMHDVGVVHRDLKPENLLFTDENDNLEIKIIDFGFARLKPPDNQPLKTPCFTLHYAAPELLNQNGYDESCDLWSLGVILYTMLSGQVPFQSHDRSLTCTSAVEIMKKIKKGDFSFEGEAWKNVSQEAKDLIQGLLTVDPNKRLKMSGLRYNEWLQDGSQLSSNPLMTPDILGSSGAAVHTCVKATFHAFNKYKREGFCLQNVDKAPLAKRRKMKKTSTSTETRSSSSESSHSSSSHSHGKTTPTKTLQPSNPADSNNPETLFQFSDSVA

Cc1cn(-c2cc(C(=O)Nc3ccc(C)c(NC(=O)c4ccno4)c3)cc(C(F)(F)F)c2)cn1
kinase still bound, per cent of control [1]: 8% | kinase still bound, per cent of control [2]: 100% | kinase still bound, per cent of control [3]: 1.3% | kinase still bound, per cent of control [4]: 100% | kinase still bound, per cent of control [5]: 100% | kinase still bound, per cent of control [6]: 100% | kinase still bound, per cent of control [7]: 100% | kinase still bound, per cent of control [8]: 100% | kinase still bound, per cent of control [9]: 100% | kinase still bound, per cent of control [10]: 100% | kinase still bound, per cent of control [11]: 100% | kinase still bound, per cent of control [12]: 100% | kinase still bound, per cent of control [13]: 100% | kinase still bound, per cent of control [14]: 100% | kinase still bound, per cent of control [15]: 100% | kinase still bound, per cent of control [16]: 100% | kinase still bound, per cent of control [17]: 100% | kinase still bound, per cent of control [18]: 100% | kinase still bound, per cent of control [19]: 100% | kinase still bound, per cent of control [20]: 100% | kinase still bound, per cent of control [21]: 100% | kinase still bound, per cent of control [22]: 100% | kinase still bound, per cent of control [23]: 100% | kinase still bound, per cent of control [24]: 100% | kinase still bound, per cent of control [25]: 100% | kinase still bound, per cent of control [26]: 100% | kinase still bound, per cent of control [27]: 100% | kinase still bound, per cent of control [28]: 100% | kinase still bound, per cent of control [29]: 100% | kinase still bound, per cent of control [30]: 100%

CCOc1cc(N2CCC(O)CC2)ccc1Nc1ncc2c(n1)N(C)c1ccccc1C(=O)N2C
kinase still bound, per cent of control [1]: 100% | kinase still bound, per cent of control [2]: 100% | kinase still bound, per cent of control [3]: 100% | kinase still bound, per cent of control [31]: 100% | kinase still bound, per cent of control [4]: 100% | kinase still bound, per cent of control [5]: 100% | kinase still bound, per cent of control [6]: 100% | kinase still bound, per cent of control [7]: 100% | kinase still bound, per cent of control [8]: 100% | kinase still bound, per cent of control [9]: 100% | kinase still bound, per cent of control [10]: 100% | kinase still bound, per cent of control [11]: 100% | kinase still bound, per cent of control [12]: 100% | kinase still bound, per cent of control [13]: 100% | kinase still bound, per cent of control [14]: 100% | kinase still bound, per cent of control [15]: 100% | kinase still bound, per cent of control [16]: 100% | kinase still bound, per cent of control [17]: 100% | kinase still bound, per cent of control [18]: 100% | kinase still bound, per cent of control [19]: 100% | kinase still bound, per cent of control [20]: 100% | kinase still bound, per cent of control [21]: 100% | kinase still bound, per cent of control [22]: 100% | kinase still bound, per cent of control [23]: 100% | kinase still bound, per cent of control [24]: 28% | kinase still bound, per cent of control [25]: 100% | kinase still bound, per cent of control [26]: 100% | kinase still bound, per cent of control [27]: 100% | kinase still bound, per cent of control [28]: 100% | kinase still bound, per cent of control [29]: 100% | kinase still bound, per cent of control [30]: 100%
